Experimental findings from US20190125888A1, “TARGETED CONJUGATES AND PARTICLES AND FORMULATIONS THEREOF” (priority 2015, published 2019) are described below.

The nature of series [1]: Ligand charge of maytansinoid conjugates. The format is physicochemical.
For series [2], the system named is NCI-H524 (ATCC) human lung cancer cells. The format is cell-based. Here is the method: FIG. 1 is a graph of various conjugates represented as bars and showing on the Y-axis their activity in an H524 proliferation assay with and without competition by octreotide. […] This illustrates the suprprising finding that only maytansinoid conjugates show activity that is dependent on the receptor.
Conjugates were assessed in an in vitro assay evaluating inhibition of cell proliferation. NCI-H524 (ATCC) human lung cancer cells were plated in 96 well, V-bottomed plates (Costar) at a concentration of 5,000 cells/well and 24 hours later were treated with compound for 6 hours and further incubated 66 hours. Compound starting dose was 20 μM and three fold serial dilutions were done for a total of ten points. After 6 hours of treatment, cells were spun down, the drug containing media was removed, and fresh complete medium was added and used to resuspend the cells, which were spun again. After removal of the wash media, the cells were resuspended in complete medium, then transferred into white walled, flat bottomed 96 well plates. […] Proliferation was measured using CellTiter Glo reagent using the standard protocol (Promega) and a Glomax multi+detection system (Promega). Percent proliferation inhibition was calculated using the following formula: % inhibition=(control-treatment)/control*100. Control is defined as vehicle alone. IC50 curves were generated using the nonlinear regression analysis (four parameter) with GraphPad Prism 6.
Conjugates were tested for their activity dependence on the somatostatin receptor. Active agent Z in the conjugate was selected from auristatin, carbazitaxel, DM1, doxorubicin, platinum, SN-38 and vinblastine. Active agent Z is connected to octreotide with various linkers. Proliferation IC50 values of the conjugates were measured. Proliferation IC50 values of the conjugates without octreotide competition were also measured. The ratio of IC50 with octreotide competition and IC50 without octreotide competition is an indicator of whether activity is at least particially dependent on bind to the somatostatin receptor. […] Therefore, the activity of conjugates comprising DM1 is dependent on the binding to the somatostatin receptor.

A short description of series [3]: Chrom LogP of maytansinoid conjugates. The format is physicochemical.
For the next series, the target named is human SSTR2 (Homo sapiens, UniProt P30874). As to the kind of experiment: Radioligand-receptor binding assay, [125I] somatostatin, membranes from SSTR2 expressing CHO-K1 cells. Here is the method:
These conjugates were also assessed in an in vitro assay evaluating binding to the somatostatin receptor 2 (SSTR2). A radioligand-receptor binding assay was conducted at Eurofins Panlabs (Taiwan) to determine the affinity of conjugates described herein to the SSTR2. The assay measures binding of radiolabeled ligand, [^125I] labeled somatostatin, to human SSTR2 using membrane preparations from SSTR2 expressing CHO-K1 cells. Membranes were incubated with radiolabeled somatostatin (0.03 nM) in the presence of conjugate/compound starting at a dose of 10 uM using 6× serial dilutions to obtain a 10-pt curve. After a four hour incubation, membranes were filtered and washed 3× and counted to determine the remaining [^125I] somatostatin bound to the receptor. IC50 values were determined by a non-linear, least squares regression analysis using MathIQ™ (ID Business Solutions Ltd., UK).

For the next series, the system named is human NCI-H69 SCLC. As to the kind of experiment: H69 xenograft efficacy study, tumor growth inhibition. In kind it is in vivo, mice. As for the experimental part:
Applicants assessed the activity of maytansinoid conjugates in vivo. In these experiments, the ability of conjugates to affect the growth of human NCI-H69 SCLC was tested. For the in vivo study, 8 week old female NCR nude mice were inoculated subcutaneously into the right flank with 2 million cells in 1:1 RPMI 1640 (Invitrogen, Carlsbad, Calif.)/Matrigel® (BD Biosciences, San Jose, Calif.). Tumor measurements were taken twice weekly, using vernier calipers. Tumor volume was calculated using the formula: V=0.5×width×width×length.
When tumors approached a volume of 200 mm^3, mice were randomized into four groups of ten animals. Mice were treated with vehicle control (10% propylene glycol in water for injection) and maytansinoid conjugates (10% propylene glycol in water for injection). Final tumor volumes were analyzed using with a one-way analysis of variance and Tukey multiple comparison test.

[4] abbreviates: read-out: H524 IC50 6 h, 6 hours treatment, further 66 hours incubation.
The mark [5] stands for this setting: read-out: H524 IC50 with 100 μM octreotide 6 h, with 100 μM octreotide competition, 6 h treatment.

Like-named read-outs stand apart in the source and are kept apart here. Where a SMILES comes first, the peptide text is derived from it. Bridges are numbered along the chain shown (N, C = ends). [ ]: non-standard residue; d: D form. The star is where a group is joined. X1 = COc1cc2cc(c1Cl)N(C)C(=O)C[C@H](OC(=O)[C@H](C)N(C)C(=O)CCS*)[C@]1(C)O[C@H]1[C@H](C)[C@@H]1C[C@@](O)(NC(=O)O1)[C@H](OC)/C=C/C=C(\C)C2

Sequence of human SSTR2 (P30874 whole entry): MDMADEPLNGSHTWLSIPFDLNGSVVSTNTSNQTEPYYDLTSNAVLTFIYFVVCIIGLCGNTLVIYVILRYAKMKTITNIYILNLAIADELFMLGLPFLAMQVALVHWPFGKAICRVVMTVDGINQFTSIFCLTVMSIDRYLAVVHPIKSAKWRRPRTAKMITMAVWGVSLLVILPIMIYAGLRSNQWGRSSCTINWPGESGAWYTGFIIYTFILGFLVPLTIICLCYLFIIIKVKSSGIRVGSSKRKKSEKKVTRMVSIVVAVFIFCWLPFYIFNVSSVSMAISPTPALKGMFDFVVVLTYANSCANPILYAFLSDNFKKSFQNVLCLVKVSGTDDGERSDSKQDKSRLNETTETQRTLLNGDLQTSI

`CCNC(=O)[C@@H](NC(=O)[C@@H]1CSSC[C@H](NC(=O)[C@@H](Cc2ccccc2)NC(=O)NCCSSCCC(=O)N(C)[C@@H](C)C(=O)O[C@H]2CC(=O)N(C)c3cc(cc(OC)c3Cl)C/C(C)=C/C=C/[C@@H](OC)[C@@]3(O)C[C@H](OC(=O)N3)[C@@H](C)[C@@H]3O[C@@]23C)C(=O)N[C@@H](Cc2ccc(O)cc2)C(=O)N[C@H](Cc2c[nH]c3ccccc23)C(=O)N[C@@H](CCCCN)C(=O)N[C@@H]([C@@H](C)O)C(=O)N1)[C@@H](C)O` [Conjugate 53]: the Ligand charge entry in series [1] was “+1”. Also, the IC50 in series [2] (setting [4]) amounted to 42 nM; in series [2] (setting [5]), 86 nM. The compound further showed a chromatographic logP in series [3] of 2.45.

For `COc1cc2cc(c1Cl)N(C)C(=O)C[C@H](OC(=O)[C@H](C)N(C)C(=O)CCSSC[C@H](NC(=O)[C@@H]1CSSC[C@H](NC(=O)[C@H](N)Cc3c[nH]c4ccccc34)C(=O)N[C@@H](Cc3ccc(O)cc3)C(=O)N[C@H](Cc3c[nH]c4ccccc34)C(=O)N[C@@H](CCCCN)C(=O)N[C@@H]([C@@H](C)O)C(=O)N1)C(N)=O)[C@]1(C)O[C@H]1[C@H](C)[C@@H]1C[C@@](O)(NC(=O)O1)[C@H](OC)/C=C/C=C(\C)C2` [Conjugate 24] (H-[dW]CY[dW]KTCC(X1)-NH2; disulfide 2-7), the Ligand charge entry in series [1] was “+2”. Besides, the IC50 in series [2] (setting [4]) was determined as 140 nM; in series [2] (setting [5]), 214 nM. The same compound showed a chromatographic logP in series [3] of 2.03.

Consider `COc1cc2cc(c1Cl)N(C)C(=O)C[C@H](OC(=O)[C@H](C)N(C)C(=O)CCSSCCNC(=O)[C@@H](NC(=O)[C@@H]1CSSC[C@H](NC(=O)[C@@H](Cc3ccccc3)NC(=O)NC3CCCCC3)C(=O)N[C@@H](Cc3ccc(O)cc3)C(=O)N[C@H](Cc3c[nH]c4ccccc34)C(=O)N[C@@H](CCCCN)C(=O)N[C@@H]([C@@H](C)O)C(=O)N1)[C@@H](C)O)[C@]1(C)O[C@H]1[C@H](C)[C@@H]1C[C@@](O)(NC(=O)O1)[C@H](OC)/C=C/C=C(\C)C2` [Conjugate 20], for which the Ligand charge entry in series [1] is “+1”. Further, the results for the IC50 in series [2] (setting [4]) and in series [2] (setting [5]) were 11 nM and 52 nM, respectively. In series [3], this compound came in with a chromatographic logP of 3.1.

As for `COc1cc2cc(c1Cl)N(C)C(=O)C[C@H](OC(=O)[C@H](C)N(C)C(=O)CCSSCCC(=O)NC[C@H](NC(=O)[C@@H]1CSSC[C@H](NC(=O)[C@H](N)Cc3ccccc3)C(=O)N[C@@H](Cc3ccc(O)cc3)C(=O)N[C@H](Cc3c[nH]c4ccccc34)C(=O)N[C@@H](CCCCN)C(=O)N[C@@H]([C@@H](C)O)C(=O)N1)C(N)=O)[C@]1(C)O[C@H]1[C@H](C)[C@@H]1C[C@@](O)(NC(=O)O1)[C@H](OC)/C=C/C=C(\C)C2` [Conjugate 44], the Ligand charge result in series [1] is recorded as “+2”. Moreover, the affinity at human SSTR2, expressed as Ki, was 0.022 nM. The IC50 was 3.6 nM in series [2] (setting [4]) and 218 nM in series [2] (setting [5]). In the series with human NCI-H69 SCLC (0.7 mg/kg once weekly for two doses, Day 13), the “TGI % Day 13” value turned out to be 58.9%. The “TGI % Day 17” value in the series with human NCI-H69 SCLC (0.7 mg/kg once weekly for two doses, Day 17) is recorded as 56.7%. In addition, in the series on human NCI-H69 SCLC (0.7 mg/kg once weekly for two doses, Day 20), the “TGI % Day 20” value came out at 59.6%. In addition, the “TGI % Day 24” value in the series on human NCI-H69 SCLC (0.7 mg/kg once weekly for two doses, Day 24) amounted to 53.1%. Besides, in the series on human NCI-H69 SCLC (0.7 mg/kg once weekly for two doses, Day 30), the “TGI % Day 30” value is given as 56.1%. The “TGI % at day 22” value in the series with human NCI-H69 SCLC (Dose 0.67 × 2 mg/kg, total dose 1.34 mg/kg) was 60%.

In the case of `CCNC(=O)[C@@H](NC(=O)[C@@H]1CSSC[C@H](NC(=O)[C@@H](Cc2ccccc2)NCCCSSCCC(=O)N(C)[C@@H](C)C(=O)O[C@@H]2CC(=O)N(C)c3cc(cc(OC)c3Cl)C/C(C)=C/C=C/[C@@H](OC)[C@@]3(O)C[C@H](OC(=O)N3)[C@@H](C)[C@@H]3O[C@@]23C)C(=O)N[C@@H](Cc2ccc(O)cc2)C(=O)N[C@H](Cc2c[nH]c3ccccc23)C(=O)N[C@@H](CCCCN)C(=O)N[C@@H]([C@@H](C)O)C(=O)N1)[C@@H](C)O` [Conjugate 50], the Ligand charge entry in series [1] is “+2”. In addition, the IC50 in series [2] (setting [4]) turned out to be 43 nM; in series [2] (setting [5]) it was 149 nM. Further, the chromatographic logP in series [3] turned out to be 2.32.

Regarding `CCCC(=O)N[C@H](Cc1ccccc1)C(=O)N[C@H]1CSSC[C@@H](C(=O)N[C@H](C(=O)NCCSSCCC(=O)N(C)[C@@H](C)C(=O)O[C@H]2CC(=O)N(C)c3cc(cc(OC)c3Cl)C/C(C)=C/C=C/[C@@H](OC)[C@@]3(O)C[C@H](OC(=O)N3)[C@@H](C)[C@@H]3O[C@@]23C)[C@@H](C)O)NC(=O)[C@H]([C@@H](C)O)NC(=O)[C@H](CCCCN)NC(=O)[C@@H](Cc2c[nH]c3ccccc23)NC(=O)[C@H](Cc2ccc(O)cc2)NC1=O` [Conjugate 19], in series [1], the Ligand charge entry is reported as “+1”. Moreover, the values for the IC50 in series [2] (setting [4]) and in series [2] (setting [5]) were 6.9 nM and 111 nM, respectively. Moreover, in series [3], the chromatographic logP was 2.88.

Consider `COc1cc2cc(c1Cl)N(C)C(=O)C[C@H](OC(=O)[C@H](C)N(C)C(=O)CCC(C)(C)SSC[C@H](NC(=O)[C@@H]1CSSC[C@H](NC(=O)[C@@H](Cc3ccccc3)NC(=O)Nc3ccccc3)C(=O)N[C@@H](Cc3ccc(O)cc3)C(=O)N[C@H](Cc3c[nH]c4ccccc34)C(=O)N[C@@H](CCCCN)C(=O)N[C@@H]([C@@H](C)O)C(=O)N1)C(N)=O)[C@]1(C)O[C@H]1[C@H](C)[C@@H]1C[C@@](O)(NC(=O)O1)[C@H](OC)/C=C/C=C(\C)C2` [Conjugate 5], for which the Ligand charge result in series [1] was “+1”. This compound also had a Ki on human SSTR2 of 0.32 nM. The IC50 amounted to 7.7 nM in series [2] (setting [4]) and 317 nM in series [2] (setting [5]).

Consider `CCCCCCNC(=O)[C@@H](NC(=O)[C@@H]1CSSC[C@H](NC(=O)[C@@H](Cc2ccccc2)NC(=O)NCCSSCCC(=O)N(C)[C@@H](C)C(=O)O[C@H]2CC(=O)N(C)c3cc(cc(OC)c3Cl)C/C(C)=C/C=C/[C@@H](OC)[C@@]3(O)C[C@H](OC(=O)N3)[C@@H](C)[C@@H]3O[C@@]23C)C(=O)N[C@@H](Cc2ccc(O)cc2)C(=O)N[C@H](Cc2c[nH]c3ccccc23)C(=O)N[C@@H](CCCCN)C(=O)N[C@@H]([C@@H](C)O)C(=O)N1)[C@@H](C)O` [Conjugate 52], for which the Ligand charge entry in series [1] is “+1”. Also, the figures for the IC50 in series [2] (setting [4]) and in series [2] (setting [5]) were 23 nM and 167 nM, respectively. Moreover, in series [3], the chromatographic logP turned out to be 3.24.

Take `COc1cc2cc(c1Cl)N(C)C(=O)C[C@H](OC(=O)[C@H](C)N(C)C(=O)CCSSC[C@H](NC(C)=O)C(=O)NC[C@H](NC(=O)[C@@H]1CSSC[C@H](NC(=O)[C@H](N)Cc3ccccc3)C(=O)N[C@@H](Cc3ccc(O)cc3)C(=O)N[C@H](Cc3c[nH]c4ccccc34)C(=O)N[C@@H](CCCCN)C(=O)N[C@@H]([C@@H](C)O)C(=O)N1)C(N)=O)[C@]1(C)O[C@H]1[C@H](C)[C@@H]1C[C@@](O)(NC(=O)O1)[C@H](OC)/C=C/C=C(\C)C2` [Conjugate 45]: the Ligand charge entry in series [1] is on record as “+2”. Also, the Ki on human SSTR2 was determined as 0.049 nM. Further, the values for the IC50 in series [2] (setting [4]) and in series [2] (setting [5]) were 1.3 nM and 154 nM, respectively.

Turning to `CCNC(=O)N[C@H](Cc1ccccc1)C(=O)N[C@H]1CSSC[C@@H](C(=O)N[C@@H](CSSCCC(=O)N(C)[C@@H](C)C(=O)O[C@H]2CC(=O)N(C)c3cc(cc(OC)c3Cl)C/C(C)=C/C=C/[C@@H](OC)[C@@]3(O)C[C@H](OC(=O)N3)[C@@H](C)[C@@H]3O[C@@]23C)C(N)=O)NC(=O)[C@H]([C@@H](C)O)NC(=O)[C@H](CCCCN)NC(=O)[C@@H](Cc2c[nH]c3ccccc23)NC(=O)[C@H](Cc2ccc(O)cc2)NC1=O` [Conjugate 39], the Ligand charge result in series [1] is recorded as “+1”. Also, on human SSTR2, the Ki amounted to 0.07 nM. In addition, the IC50 in series [2] (setting [4]) is 1.3 nM; in series [2] (setting [5]), 12 nM.

The IC50 is the point on the concentration scale where inhibition reaches its midpoint. What is called chromatographic logP is lipophilicity estimated from chromatographic retention. The Ki is a measure of affinity in units of concentration, obtained from inhibition or displacement.
